Three molecules from patent US20160139123A1, “Shear Wave Imaging Method and Installation for Collecting Information on a Soft Solid” (INSTITUT NATIONAL DE LA SANTE ET DE LA RECHERCHE MEDICALE …, priority 2013, published 2016) can be followed below.

For this experiment, the system named is naive CD4 T cells. Put plainly: Differentiation induction of naive CD4 T cells (DP8α induction). Type of experiment: cell-based, human. The note with it: for effect on the frequency of DP8α cells: short chain fatty acid added to the induction culture. The protocol: Naive CD4 T cells are obtained from PBMC or PBL using the EasySep negative selection kit for naive CD4 T cells ([…] technologies).
Monocytes are isolated from PBMC using the CD14 microbeads positive selection kit of Miltenyi.
Immature dendritic cells (iDC) are prepared from monocytes (CD14+) cultured for 3 days with IL-4 (200 IU/ml) and GM-CSF (1000 IU/ml). Said cells are also called mo-iDC (monocyte-derived immature dendritic cells).
Immature DC are co-cultured for a night with thawed F. prausnitzii bacteria at 1:1 ratio in the presence or not of butyrate. The iDC are then added to naive CD4 cells for 5 days in the presence of IL-2.
Alternatively, butyrate is added later, at the same time as naive CD4 T cell.
DP8α induction is measured by a labeling with CD3-PE (phycoerythrin), CD4-FITC, CD8-APC (allophycocyanin) antibodies. The results are compared with those obtained with unstimulated CD4 T cells, CD4 T cells stimulated by iDC alone and CD4 T cells stimulated by iDC loaded with E. coli.

Turning to `CC(=O)O` [acetate], the “effect on the frequency of DP8α cells” value is “no or few effect”.
In the case of `CCCC(=O)O` [butyrate], under “butyrate 0.145 mM added to iDC loaded with F. prausnitzii”, the “fraction of naive CD4 T cells that acquire the DP8α phenotype (mean)” value was 6%.
As to `CCC(=O)O` [propionate], the “effect on the frequency of DP8α cells” value is listed as “no or few effect”.
